In patent publication US20250019374A1, “PROTEIN TYROSINE PHOSPHATASE INHIBITORS AND METHODS OF USE THEREOF” (Calico Life Sciences LLC, priority 2021, published 2025):
Like-named read-outs stand apart in the source and are kept apart here.

Columns and labels:
[1] = target: His tagged full-length PTPN1 protein (Homo sapiens (Human), UniProt P18031); assay: PTPN1 Mobility Shift Assay (MSA); format: biochemical; conditions: enzyme 0.5 nM, substrate 2 μM
Experimental: Example III-2: Mobility Shift Assay (MSA) Used to Determine Potency of PTPN1 Inhibitors
Compound activity was determined using in house His tagged full-length PTPN1 protein (SEQ ID NO: 3) in an in vitro enzymatic reaction. The enzymatic assay used to determine activity is a mobility shift assay using a LabChip EZ Reader by Caliper Life Sciences. The enzymatic reaction was carried out in assay buffer (50 mM HEPES pH 7.5, 1 mM EGTA, 10 mM EDTA, 0.01% Tween® 20, and 2 mM DTT). The compounds were dispensed on a white 384 well ProxiPlate™ (PerkinElmer Cat ^#6008289) plate using a Labcyte Echo® liquid handler at varying concentrations (12 point, 1:3 dilution). The enzyme (at 0.5 nM) was incubated with compound for 10 minutes at room temperature. Thereafter, the substrate (phosphorylated insulin receptor probe sequence: ((OG488)-(NH—CH2—CH2—O—CH2—CH2—O—CH2—CO)-T-R-D-I—(PY)-E-T-D-Y—Y—R—K—K—NH2) (SEQ ID NO: 2) was added at 2 μM to the plates and incubated for another 10 minutes at room temperature. Finally, a quench solution (water and 4-bromo-3-(2-oxo-2-propoxyethoxy)-5-(3-{[1-(phenylmethanesulfonyl)piperidin-4-yl]amino}phenyl)thiophene-2-carboxylic acid) was added to the plates, which were then run on the EZ Reader (excitation 488 nm, emission 530 nm) to measure % conversion (the amount of phosphorylated substrate which was de-phosphorylated by PTPN1). […] The % inhibition was then used to calculate the IC50 values.

[2] = target: His tagged PTPN2 (TC45) protein (Homo sapiens (Human), UniProt P17706); assay: PTPN2 Mobility Shift Assay (MSA); format: biochemical; conditions: for Dihydrobenzofuran or Indoline x-fold>potency biochemical: x-fold versus corresponding chromane comparator, PTPN2 MSA
Chain of His tagged PTPN2 (TC45) protein (P17706 other isoform, or with tags, fused parts or gaps): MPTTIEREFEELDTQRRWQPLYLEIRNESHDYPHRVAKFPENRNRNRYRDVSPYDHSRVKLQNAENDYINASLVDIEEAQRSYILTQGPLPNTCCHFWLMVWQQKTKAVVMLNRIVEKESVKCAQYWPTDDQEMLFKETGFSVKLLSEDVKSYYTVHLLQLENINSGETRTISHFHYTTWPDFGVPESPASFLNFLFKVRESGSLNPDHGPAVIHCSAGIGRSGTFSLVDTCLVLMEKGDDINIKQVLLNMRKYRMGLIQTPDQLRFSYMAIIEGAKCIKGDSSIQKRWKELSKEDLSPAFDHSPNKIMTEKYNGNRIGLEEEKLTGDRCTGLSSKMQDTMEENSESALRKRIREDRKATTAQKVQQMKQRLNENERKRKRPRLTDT
Experimental: Example III-1: Mobility Shift Assay (MSA) Used to Determine Potency of PTPN2 Inhibitors
Compound activity was determined using in house His tagged PTPN2 (TC45) protein (SEQ ID NO: 1) in an in vitro enzymatic reaction. The enzymatic assay used to determine activity was a mobility shift assay using a LabChip EZ Reader by Caliper Life Sciences. The enzymatic reaction was carried out in assay buffer (50 mM HEPES pH 7.5, 1 mM EGTA, 10 mM EDTA, 0.01% Tween® 20, and 2 mM DTT). The compounds were dispensed on a white 384 well ProxiPlate™ (PerkinElmer Catalog #6008289) plate using the Labcyte Echo at varying concentrations (12 point, 1:3 dilution). The enzyme (at 0.5 nM) was incubated with compound for 10 minutes at room temperature. Thereafter, the substrate (phosphorylated insulin receptor probe sequence: ((OG488)-(NH—CH2—CH2—O—CH2—CH2—O—CH2—CO)-T-R-D-I—(PY)-E-T-D-Y—Y—R—K—K—NH2) (SEQ ID NO: 2) was added at 2 μM to the plates and incubated for another 10 minutes at room temperature. Finally, a quench solution (water and 4-bromo-3-(2-oxo-2-propoxyethoxy)-5-(3-{[1-(phenylmethanesulfonyl)piperidin-4-yl]amino}phenyl)thiophene-2-carboxylic acid) was added to the plates, which were then run on the EZ Reader (excitation 488 nm, emission 530 nm) to measure % conversion (the amount of phosphorylated substrate which was de-phosphorylated by PTPN2). […] The % inhibition was then used to calculate the IC50 values.

[3] = test system: IFNγ-induced STAT1 phosphorylation (pSTAT1) in B16F10 cells; assay: B16F10 Phospho-STAT1 HTRF proximal pharmacodynamic (PD) assay; format: cell-based, murine; conditions: for EC50: B16-F10, B16F10 cells; for Dihydrobenzofuran or Indoline x-fold>potency cellular: x-fold versus corresponding chromane comparator, B16F10 pSTAT1
Experimental: Example III-3: B16F10 (Murine Melanoma Cells) Phospho-STAT1 HTRF Proximal Pharmacodynamic (PD) Assay
B16F10 cells were grown and maintained in high glucose DMEM (Gibco, Catalog^#11965-092, Dun Laoghaire Co Dublin) supplemented with 10% fetal bovine serum (Gibco, Catalog^#10082-139, Dun Laoghaire Co Dublin). The cells were pelleted and resuspended in high glucose DMEM without phenol red (Gibco, Catalog^#11054-020, Dun Laoghaire Co Dublin), supplemented with 10% fetal bovine serum and plated in a 384 well Corning plate (product^#3765, Corning, NY) at 11,000 cells per well in a volume of 20 μL. The cells were dosed with the compounds of interest using an Echo Liquid Handler (Beckman Coulter, Brea, CA) at 50 μM top dose with 3-fold dilutions down to 0.002679 μM for a 10-point dose response. The plate was incubated for 3 hours at 37° C. and subsequently treated with recombinant mouse IFNγ (R&D Systems, Catalog^#485-MI, Minneapolis, MN; 100 nM final concentration) for 10 minutes at 37° C. to induce STAT1 phosphorylation followed by 3.3 μM staurosporine treatment for 1 hour at 37° C. to terminate phosphorylation. Media was then aspirated and 20 μL of 1× lysis buffer/blocking reagent (Cisbio Phospho-STAT1 kit, part^# 63ADK026PEH, Bedford, MA) was added. The plate was placed on a plate shaker for 30 minutes at room temperature, sealed, and stored at −80° C. until needed. To thaw, the plate was placed on shaker at room temperature until completely thawed while the antibody master mix was made (1:40 Phospho-STAT1 Eu Cryptate antibody, 1:40 Phospho-STAT d2 antibody, with the detection buffer; Cisbio Phospho-STAT1 kit, part^#63ADK026PEH, Bedford, MA). The antibody master mix was then dispensed at 4 μL per well into a 384 ProxiPlate Plus (PerkinElmer, part^#6008289, Waltham, MA) and 16 μL of lysate was added from the Corning plate to the Proxiplate using a VIAFLO 384 (INTEGRA). The plate was incubated for 3 hours at room temperature and read on an EnVision® (Perkin Elmer) plate reader with laser excitation at 335 nm and emission at 665 nm. Dotmatics Studies (Bishop's Stortford, UK) was utilized to generate all dose-response curves and calculate EC50s and are shown in Table 2.

[4] = Table 3, dihydrobenzofuran or indoline compound (X = O or NH)
[5] = 3 hours compound, 100 nM mouse IFNγ 10 minutes, read-out: B16F10 IFNγ Induced pSTAT1 EC50
[6] = Mus musculus, Table 3, dihydrobenzofuran or indoline compound (X = O or NH), read-out: pSTAT1 EC50

Chain of His tagged full-length PTPN1 protein (P18031 whole entry): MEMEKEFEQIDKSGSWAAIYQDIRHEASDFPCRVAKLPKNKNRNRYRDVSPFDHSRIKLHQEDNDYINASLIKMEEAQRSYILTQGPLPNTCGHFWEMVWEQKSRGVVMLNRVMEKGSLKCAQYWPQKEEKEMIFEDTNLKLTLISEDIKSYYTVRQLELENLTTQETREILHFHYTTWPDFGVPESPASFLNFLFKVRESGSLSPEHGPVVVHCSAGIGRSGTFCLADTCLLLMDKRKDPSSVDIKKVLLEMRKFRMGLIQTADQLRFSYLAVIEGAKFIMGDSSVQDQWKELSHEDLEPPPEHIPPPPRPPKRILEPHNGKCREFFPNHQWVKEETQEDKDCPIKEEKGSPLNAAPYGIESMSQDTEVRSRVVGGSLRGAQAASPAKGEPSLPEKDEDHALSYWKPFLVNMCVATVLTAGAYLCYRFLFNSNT

SMILES	IC50 [1] [nM]	EC50 [3, 5] [nM]	EC50 [3, 6] [nM]	IC50 [2, 4] [nM]	IC50 ([2]; enzyme 0.5 nM, substrate 2 μM) [nM]	Dihydrobenzofuran or Indoline x-fold>potency biochemical [2]	Dihydrobenzofuran or Indoline x-fold>potency cellular [3]
CC(C)CNC[C@@H]1Cc2c(cc(O)c(N3CC(=O)NS3(=O)=O)c2F)O1 [Compound 101, 5-[(2S)-4-fluoro-6-hydroxy-2-{[(2-methylpropyl)amino]methyl}-2,3-dihydro-1-benzofuran-5-yl]-1λ^6,2,5-thiadiazolidine-1,1,3-trione]	> 100	–	–	–	> 100	–	–
CC(C)(O)CCNC[C@H]1Cc2c(cc(O)c(N3CC(=O)NS3(=O)=O)c2F)O1 [Compound 105, 5-[(2R)-4-fluoro-6-hydroxy-2-{[(3-hydroxy-3-methylbutyl)amino]methyl}-2,3-dihydro-1-benzofuran-5-yl]-1λ^6,2,5-thiadiazolidine-1,1,3-trione]	10 to 100	2950	–	–	10 to 100	–	–
O=C1CN(c2c(O)cc3c(c2F)C[C@H](CNCCC2CC(F)(F)C2)O3)S(=O)(=O)N1 [Compound 106, 5-[(2R)-2-({[2-(3,3-difluorocyclobutyl)ethyl]amino}methyl)-4-fluoro-6-hydroxy-2,3-dihydro-1-benzofuran-5-yl]-1λ^6,2,5-thiadiazolidine-1,1,3-trione]	10 to 100	1860	–	–	< 10	–	–
O=C1CN(c2c(O)cc3c(c2F)C[C@H](CNCCCC(F)F)O3)S(=O)(=O)N1 [Compound 107, 5-[(2R)-2-{[(4,4-difluorobutyl)amino]methyl}-4-fluoro-6-hydroxy-2,3-dihydro-1-benzofuran-5-yl]-1λ^6,2,5-thiadiazolidine-1,1,3-trione]	10 to 100	1330	1330	13.3	10 to 100	0.7	2.7
O=C1CN(c2c(O)cc3c(c2F)C[C@H](CNCCCOCC(F)F)O3)S(=O)(=O)N1 [Compound 123, 5-[(2R)-2-({[3-(2,2-difluoroethoxy)propyl]amino}methyl)-4-fluoro-6-hydroxy-2,3-dihydro-1-benzofuran-5-yl]-1λ^6,2,5-thiadiazolidine-1,1,3-trione]	10 to 100	–	–	11.2	10 to 100	2.1	–
CC(C)(C)OC(=O)N1CCC(CNC[C@H]2Cc3c(cc(O)c(N4CC(=O)NS4(=O)=O)c3F)O2)CC1 [Compound 124, tert-butyl 4-[({[(2R)-4-fluoro-6-hydroxy-5-(1,1,4-trioxo-1λ^6,2,5-thiadiazolidin-2-yl)-2,3-dihydro-1-benzofuran-2-yl]methyl}amino)methyl]piperidine-1-carboxylate]	10 to 100	–	–	13.2	10 to 100	1.1	–
CC(C)CNC[C@H]1Cc2c(cc(O)c(N3CC(=O)NS3(=O)=O)c2F)N1C [Compound 156, 5-[(2R)-4-fluoro-6-hydroxy-1-methyl-2-{[(2-methylpropyl)amino]methyl}-2,3-dihydro-1H-indol-5-yl]-1λ^6,2,5-thiadiazolidine-1,1,3-trione]	> 100	–	–	–	> 100	–	–
O=C1CN(c2c(O)cc3c(c2F)C[C@H](CNCC(O)C(F)F)N3)S(=O)(=O)N1 (stereo partly drawn) [Compound 157, 5-[(2R)-2-{[(3,3-difluoro-2-hydroxypropyl)amino]methyl}-4-fluoro-6-hydroxy-2,3-dihydro-1H-indol-5-yl]-1λ^6,2,5-thiadiazolidine-1,1,3-trione]	> 100	–	–	–	> 100	–	–

Further lines, with some results ahead:

IC50 [1] [nM]	EC50 [3, 5] [nM]	EC50 [3, 6] [nM]	SMILES	IC50 [2, 4] [nM]	IC50 ([2]; enzyme 0.5 nM, substrate 2 μM) [nM]	Dihydrobenzofuran or Indoline x-fold>potency biochemical [2]	Dihydrobenzofuran or Indoline x-fold>potency cellular [3]
10 to 100	3670	3670	O=C1CN(c2c(O)cc3c(c2F)C[C@H](CNCC2C4CCCC42)O3)S(=O)(=O)N1 (mixture of isomers) [Compound 126, 5-{(2R)-2-[({[(1RS,5SR)-bicyclo[3.1.0]hexan-6-yl]methyl}amino)methyl]-4-fluoro-6-hydroxy-2,3-dihydro-1-benzofuran-5-yl}-1λ^6,2,5-thiadiazolidine-1,1,3-trione]	6.06	< 10	5.3	>13.6
10 to 100	853	–	CC(C)CNC[C@H]1Cc2c(cc(O)c(N3CC(=O)NS3(=O)=O)c2F)O1 [Compound 100, 5-[(2R)-4-fluoro-6-hydroxy-2-{[(2-methylpropyl)amino]methyl}-2,3-dihydro-1-benzofuran-5-yl]-1λ^6,2,5-thiadiazolidine-1,1,3-trione]	–	< 10	–	–
10 to 100	3420	–	CC(C)CNCC1Cc2c(cc(O)c(N3CC(=O)NS3(=O)=O)c2F)O1 (stereo not shown) [Compound 102, 5-(4-fluoro-6-hydroxy-2-{[(2-methylpropyl)amino]methyl}-2,3-dihydro-1-benzofuran-5-yl)-1λ^6,2,5-thiadiazolidine-1,1,3-trione]	–	10 to 100	–	–
10 to 100	1870	–	O=C1CN(c2c(O)cc3c(c2F)C[C@H](CNCCC2CCCC2)O3)S(=O)(=O)N1 [Compound 103, 5-[(2R)-2-{[(2-cyclopentylethyl)amino]methyl}-4-fluoro-6-hydroxy-2,3-dihydro-1-benzofuran-5-yl]-1λ^6,2,5-thiadiazolidine-1,1,3-trione]	–	< 10	–	–
10 to 100	5110	–	CC(C)(CO)CCNC[C@H]1Cc2c(cc(O)c(N3CC(=O)NS3(=O)=O)c2F)O1 [Compound 104, 5-[(2R)-4-fluoro-6-hydroxy-2-{[(4-hydroxy-3,3-dimethylbutyl)amino]methyl}-2,3-dihydro-1-benzofuran-5-yl]-1λ^6,2,5-thiadiazolidine-1,1,3-trione]	–	10 to 100	–	–
